Our source for the IC50 values is patent US20230081426A1, “COMPOUNDS AND METHODS FOR KRAS MODULATION AND INDICATIONS THEREFOR” (Plexxikon Inc., priority 2020, published 2023).

The target in test [1] is T1, G12D-mutant human KRAS (amino acid residues 1-188) (Homo sapiens, UniProt P01116, G12D).
T1 construct: G12D or G12C-mutant human KRAS (amino acid residues 1-188) with FLAG tag; made in house; host or cells: E. coli
In words: KRAS Binding Disruption Assay (AlphaScreen; biotinylated KRpep-2d analogue or RAF1-RBD), G12D. The following applies: KRAS G12D; geometric mean; read-out: KRAS GMean IC50 (uM) MUTATION: G12D. The essentials: (§1)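 AlphaScreen readout: signal falls as compound displaces biotinylated KRpep-2d analogue or RAF1-RBD from mutant KRAS. Both partners at 5-20 nM, 1 h binding at 25° C, then 10 μg/mL Anti-Flag acceptor and streptavidin donor beads for 1 h. IC50 by nonlinear regression of % inhibition.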
A general note: Bead proximity is the source of the signal in Alpha formats.

Test [2] addresses T2, G12C-mutant human KRAS (amino acid residues 1-188) (Homo sapiens, UniProt P01116, G12C).
T2 construct: G12D or G12C-mutant human KRAS (amino acid residues 1-188) with FLAG tag; made in house; host or cells: E. coli
In words: KRAS Binding Disruption Assay (AlphaScreen; biotinylated KRpep-2d analogue or RAF1-RBD), G12C. To be noted: geometric mean, read-out: KRAS GMean IC50 (uM) MUTATION: G12C. Summed up:
as §1

T1 sequence (P01116 1-188 isoform P01116-2 G12D): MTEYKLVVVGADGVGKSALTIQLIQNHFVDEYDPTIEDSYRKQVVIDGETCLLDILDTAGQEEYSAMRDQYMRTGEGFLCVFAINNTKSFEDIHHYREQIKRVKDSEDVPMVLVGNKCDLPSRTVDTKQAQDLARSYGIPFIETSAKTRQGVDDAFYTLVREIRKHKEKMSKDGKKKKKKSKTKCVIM
T2 sequence (P01116 1-188 isoform P01116-2 G12C): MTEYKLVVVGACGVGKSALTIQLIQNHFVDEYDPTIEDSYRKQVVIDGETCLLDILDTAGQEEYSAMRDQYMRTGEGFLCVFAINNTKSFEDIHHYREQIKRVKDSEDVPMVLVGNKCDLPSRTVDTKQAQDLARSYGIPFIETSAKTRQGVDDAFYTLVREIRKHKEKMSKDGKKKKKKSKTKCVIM

The IC50 is the concentration that gives 50% inhibition. For `CC(F)(F)COc1nc(N2C[C@H]3CC[C@@H](C2)N3)c2ccc(-c3cc(O)cc4ccccc34)c(F)c2n1` [P-0748, 4-(4-((1R,5S)-3,8-diazabicyclo[3.2.1]octan-3-yl)-2-(2,2-difluoropropoxy)-8-fluoroquinazolin-7-yl)naphthalen-2-ol], the IC50 in test [1] lay in the range of 0.0001 to 10 µM; in test [2], 10 to 100 µM.
For `Oc1cc(-c2ccc3c(N4C[C@H]5CC[C@@H](C4)N5)nc(OCC(F)F)nc3c2F)c2ccccc2c1` [P-0749, 4-(4-((1R,5S)-3,8-diazabicyclo[3.2.1]octan-3-yl)-2-(2,2-difluoroethoxy)-8-fluoroquinazolin-7-yl)naphthalen-2-ol] the same measures were 0.0001 to 10 µM and 10 to 100 µM.
For `Oc1cc(-c2ccc3c(N4C[C@H]5CC[C@@H](C4)N5)nc(OCC4CCC4)nc3c2F)c2ccccc2c1` [P-0750, 4-(4-((1R,5S)-3,8-diazabicyclo[3.2.1]octan-3-yl)-2-(cyclobutylmethoxy)-8-fluoroquinazolin-7-yl)naphthalen-2-ol], in that order: 0.0001 to 10 µM and 10 to 100 µM.
Turning to `N#CC1CC(COc2nc(N3C[C@H]4CC[C@@H](C3)N4)c3ccc(-c4cc(O)cc5ccccc45)c(F)c3n2)C1` (stereo partly drawn) [P-0751, 3-(((4-((1R,5S)-3,8-diazabicyclo[3.2.1]octan-3-yl)-8-fluoro-7-(3-hydroxynaphthalen-1-yl)quinazolin-2-yl)oxy)methyl)cyclobutane-1-carbonitrile], the IC50 in test [1] lay in the range of 0.0001 to 10 µM; in test [2], 10 to 100 µM.
`Oc1cc(-c2ccc3c(N4C[C@H]5CC[C@@H](C4)N5)nc(OCC4CCC(F)(F)CC4)nc3c2F)c2ccccc2c1` [P-0752, 4-(4-((1R,5S)-3,8-diazabicyclo[3.2.1]octan-3-yl)-2-((4,4-difluorocyclohexyl)methoxy)-8-fluoroquinazolin-7-yl)naphthalen-2-ol]: the IC50 in test [1] was in the range of 0.0001 to 10 µM; in test [2], 10 to 100 µM.
Consider `CN(C)CCOc1nc(N2C[C@H]3CC[C@@H](C2)N3)c2ccc(-c3cc(O)cc4ccccc34)c(F)c2n1` [P-0753, 4-(4-((1R,5S)-3,8-diazabicyclo[3.2.1]octan-3-yl)-2-(2-(dimethylamino)ethoxy)-8-fluoroquinazolin-7-yl)naphthalen-2-ol], for which the IC50 in test [1] and in test [2] was 0.0001 to 10 µM throughout.
For `CNCCc1nc(N2C[C@H]3CC[C@@H](C2)N3)c2ccc(-c3cc(O)cc4ccccc34)c(F)c2n1` [P-0754, 4-(4-((1R,5S)-3,8-diazabicyclo[3.2.1]octan-3-yl)-8-fluoro-2-(2-(methylamino)ethyl)quinazolin-7-yl)naphthalen-2-ol], the IC50 was in the range of 0.0001 to 10 µM in test [1] and 10 to 100 µM in test [2].
For `CC(CCBr)Oc1nc(N2C[C@H]3CC[C@@H](C2)N3)c2ccc(-c3cc(O)cc4ccccc34)c(F)c2n1` (stereo partly drawn) [P-0755, 4-(4-((1R,5S)-3,8-diazabicyclo[3.2.1]octan-3-yl)-2-((4-bromobutan-2-yl)oxy)-8-fluoroquinazolin-7-yl)naphthalen-2-ol], the IC50 lay in the range of 0.0001 to 10 µM in test [1] and 10 to 100 µM in test [2].
For the molecule `CN1CCC[C@H]1COc1nc(N2C[C@H]3CC[C@@H](C2)N3)c2cc(F)c(-c3c[nH]c4ccc(Cl)nc34)c(F)c2n1` [P-0756, 4-((1R,5S)-3,8-diazabicyclo[3.2.1]octan-3-yl)-7-(5-chloro-1H-pyrrolo[3,2-b]pyridin-3-yl)-6,8-difluoro-2-(((S)-1-methylpyrrolidin-2-yl)methoxy)quinazoline], the IC50 in test [1] lay in the range of 0.0001 to 10 µM; in test [2] it was 100 to 1000 µM.
Take `CN1CCC[C@H]1COc1nc(N2C[C@H]3CC[C@@H](C2)N3)c2cc(F)c(-c3c[nH]c4ccc(C(F)(F)F)cc34)c(F)c2n1` [P-0757, 4-((1R,5S)-3,8-diazabicyclo[3.2.1]octan-3-yl)-6,8-difluoro-2-(((S)-1-methylpyrrolidin-2-yl)methoxy)-7-(5-(trifluoromethyl)-1H-indol-3-yl)quinazoline]: the IC50 in test [1] lay within 0.0001 to 10 µM; in test [2] it was 100 to 1000 µM.
For the molecule `Cc1ccc2[nH]cc(-c3c(F)cc4c(N5C[C@H]6CC[C@@H](C5)N6)nc(OC[C@@H]5CCCN5C)nc4c3F)c2c1` [P-0758, 4-((1R,5S)-3,8-diazabicyclo[3.2.1]octan-3-yl)-6,8-difluoro-7-(5-methyl-1H-indol-3-yl)-2-(((S)-1-methylpyrrolidin-2-yl)methoxy)quinazoline], the IC50 in test [1] fell in the range of 0.0001 to 10 µM; in test [2] it was 100 to 1000 µM.
Take `CN1CCC[C@H]1COc1nc(N2C[C@H]3CC[C@@H](C2)N3)c2cc(F)c(-c3c[nH]c4cc(F)ccc34)c(F)c2n1` [P-0759, 4-((1R,5S)-3,8-diazabicyclo[3.2.1]octan-3-yl)-6,8-difluoro-7-(6-fluoro-1H-indol-3-yl)-2-(((S)-1-methylpyrrolidin-2-yl)methoxy)quinazoline]: the IC50 in test [1] fell in the range of 0.0001 to 10 µM; in test [2], 10 to 100 µM.
For `CN1CCC[C@H]1COc1nc(N2C[C@H]3CC[C@@H](C2)N3)c2ccc(-c3cc(N)nc4ccccc34)c(F)c2n1` [P-0760, 4-(4-((1R,5S)-3,8-diazabicyclo[3.2.1]octan-3-yl)-8-fluoro-2-(((S)-1-methylpyrrolidin-2-yl)methoxy)quinazolin-7-yl)quinolin-2-amine], the IC50 in test [1] lay within 0.0001 to 10 µM; in test [2] it was 10 to 100 µM.
As to `CN1CCC[C@H]1COc1nc(N2C[C@H]3CC[C@@H](C2)N3)c2ccc(-c3cc(=O)[nH]c4ccccc34)c(F)c2n1` [P-0761, 4-(4-((1R,5S)-3,8-diazabicyclo[3.2.1]octan-3-yl)-8-fluoro-2-(((S)-1-methylpyrrolidin-2-yl)methoxy)quinazolin-7-yl)quinolin-2(1H)-one], the concentration for half-maximal inhibition (IC50) in test [1] fell in the range of 0.0001 to 10 µM; in test [2], 100 to 1000 µM.
Regarding `CN1CCC[C@H]1COc1nc(N2C[C@H]3CC[C@@H](C2)N3)c2ccc(-c3nccc4cccc(C(F)(F)F)c34)c(F)c2n1` [P-0762, 4-((1R,5S)-3,8-diazabicyclo[3.2.1]octan-3-yl)-8-fluoro-2-(((S)-1-methylpyrrolidin-2-yl)methoxy)-7-(8-(trifluoromethyl)isoquinolin-1-yl)quinazoline], the IC50 in test [1] and in test [2] was 10 to 100 µM each time.
As for `Fc1ccc2[nH]cc(-c3ccc4c(N5C[C@H]6CC[C@@H](C5)N6)nc(OCC56CCCN5CCC6)nc4c3F)c2c1F` [P-0763, 4-((1R,5S)-3,8-diazabicyclo[3.2.1]octan-3-yl)-7-(4,5-difluoro-1H-indol-3-yl)-8-fluoro-2-((tetrahydro-1H-pyrrolizin-7a(5H)-yl)methoxy)quinazoline], the IC50 in test [1] and in test [2] was 0.0001 to 10 µM throughout.
Consider `Fc1c(-c2c[nH]c3cccc(F)c23)ccc2c(N3C[C@H]4CC[C@@H](C3)N4)nc(OCC34CCCN3CCC4)nc12` [P-0764, 4-((1R,5S)-3,8-diazabicyclo[3.2.1]octan-3-yl)-8-fluoro-7-(4-fluoro-1H-indol-3-yl)-2-((tetrahydro-1H-pyrrolizin-7a(5H)-yl)methoxy)quinazoline], for which the IC50 in test [1] and in test [2] was 0.0001 to 10 µM throughout.
For the molecule `Fc1ccc2[nH]cc(-c3c(Cl)cc4c(N5C[C@H]6CC[C@@H](C5)N6)nc(OCC56CCCN5CCC6)nc4c3F)c2c1F` [P-0765, 4-((1R,5S)-3,8-diazabicyclo[3.2.1]octan-3-yl)-6-chloro-7-(4,5-difluoro-1H-indol-3-yl)-8-fluoro-2-((tetrahydro-1H-pyrrolizin-7a(5H)-yl)methoxy)quinazoline], the IC50 in test [1] and in test [2] was 0.0001 to 10 µM throughout.
